From ChEMBL document CHEMBL3044736, “Synthesis, characterization, solvatochromic properties, and antimicrobial evaluation of 5-acetyl-2-thioxo-dihydro-pyrimidine-4,6-dione-based chalcones” (2013)
In brackets after ≈: the same amount, converted by molar mass.

Legend:
Type in all cases: functional
[1] = tested on: Streptococcus pyogenes; assay: Antimicrobial activity against Streptococcus pyogenes MTCC 442 assessed as diameter of growth inhibition zone at 250 ug/ml after 18-24 hr by agar cup diffusion method; details: read-out: DIZ
[2] = tested on: Streptococcus pyogenes; assay: Antimicrobial activity against Streptococcus pyogenes MTCC 442 assessed as diameter of growth inhibition zone at 100 ug/ml after 18-24 hr by agar cup diffusion method; details: read-out: DIZ
[3] = tested on: Penicillium; assay: Antimicrobial activity against Penicillium wild strain by agar cup diffusion method
[4] = tested on: Trichophyton rubrum; assay: Antimicrobial activity against Trichophyton rubrum MTCC 296 assessed as diameter of growth inhibition zone at 250 ug/ml after 48-96 hr by agar cup diffusion method; details: read-out: DIZ
[5] = tested on: Klebsiella pneumoniae; assay: Antimicrobial activity against Klebsiella pneumoniae MTCC 109 assessed as diameter of growth inhibition zone at 25 ug/ml after 18-24 hr by agar cup diffusion method; details: read-out: DIZ
[6] = tested on: Aspergillus clavatus; assay: Antimicrobial activity against Aspergillus clavatus MTCC 1323 by agar cup diffusion method
[7] = tested on: Aspergillus clavatus; assay: Antimicrobial activity against Aspergillus clavatus MTCC 1323 assessed as diameter of growth inhibition zone at 250 ug/ml after 48-96 hr by agar cup diffusion method; details: read-out: DIZ
[8] = tested on: Streptococcus pyogenes; assay: Antimicrobial activity against Streptococcus pyogenes MTCC 442 assessed as diameter of growth inhibition zone at 25 ug/ml after 18-24 hr by agar cup diffusion method; details: read-out: DIZ
[9] = tested on: Candida albicans; assay: Antimicrobial activity against Candida albicans MTCC 227 assessed as diameter of growth inhibition zone at 250 ug/ml after 48-96 hr by agar cup diffusion method; details: read-out: DIZ
[10] = tested on: Trichophyton rubrum; assay: Antimicrobial activity against Trichophyton rubrum MTCC 296 assessed as diameter of growth inhibition zone at 25 ug/ml after 48-96 hr by agar cup diffusion method; details: read-out: DIZ
[11] = tested on: Candida albicans; assay: Antimicrobial activity against Candida albicans MTCC 227 by agar cup diffusion method
[12] = tested on: Staphylococcus aureus; assay: Antimicrobial activity against Staphylococcus aureus MTCC 96 assessed as diameter of growth inhibition zone at 50 ug/ml after 18-24 hr by agar cup diffusion method; details: read-out: DIZ
[13] = tested on: Aspergillus clavatus; assay: Antimicrobial activity against Aspergillus clavatus MTCC 1323 assessed as diameter of growth inhibition zone at 25 ug/ml after 48-96 hr by agar cup diffusion method; details: read-out: DIZ
[14] = tested on: Trichophyton rubrum; assay: Antimicrobial activity against Trichophyton rubrum MTCC 296 assessed as diameter of growth inhibition zone at 50 ug/ml after 48-96 hr by agar cup diffusion method; details: read-out: DIZ
[15] = tested on: Klebsiella pneumoniae; assay: Antimicrobial activity against Klebsiella pneumoniae MTCC 109 assessed as diameter of growth inhibition zone at 250 ug/ml after 18-24 hr by agar cup diffusion method; details: read-out: DIZ
[16] = tested on: Escherichia coli; assay: Antimicrobial activity against Escherichia coli MTCC 443 assessed as diameter of growth inhibition zone at 100 ug/ml after 18-24 hr by agar cup diffusion method; details: read-out: DIZ
[17] = tested on: Staphylococcus aureus; assay: Antimicrobial activity against Staphylococcus aureus MTCC 96 assessed as diameter of growth inhibition zone at 250 ug/ml after 18-24 hr by agar cup diffusion method; details: read-out: DIZ
[18] = tested on: Candida albicans; assay: Antimicrobial activity against Candida albicans MTCC 227 assessed as diameter of growth inhibition zone at 50 ug/ml after 48-96 hr by agar cup diffusion method; details: read-out: DIZ
[19] = tested on: Pseudomonas aeruginosa; assay: Antimicrobial activity against Pseudomonas aeruginosa MTCC 1688 assessed as diameter of growth inhibition zone at 100 ug/ml after 18-24 hr by agar cup diffusion method; details: read-out: DIZ
[20] = tested on: Candida albicans; assay: Antimicrobial activity against Candida albicans MTCC 227 assessed as diameter of growth inhibition zone at 100 ug/ml after 48-96 hr by agar cup diffusion method; details: read-out: DIZ
[21] = tested on: Pseudomonas aeruginosa; assay: Antimicrobial activity against Pseudomonas aeruginosa MTCC 1688 assessed as diameter of growth inhibition zone at 25 ug/ml after 18-24 hr by agar cup diffusion method; details: read-out: DIZ
[22] = tested on: Klebsiella pneumoniae; assay: Antimicrobial activity against Klebsiella pneumoniae MTCC 109 assessed as diameter of growth inhibition zone at 50 ug/ml after 18-24 hr by agar cup diffusion method; details: read-out: DIZ
[23] = tested on: Penicillium; assay: Antimicrobial activity against Penicillium wild strain assessed as diameter of growth inhibition zone at 50 ug/ml after 48-96 hr by agar cup diffusion method; details: read-out: DIZ
[24] = tested on: Penicillium; assay: Antimicrobial activity against Penicillium wild strain assessed as diameter of growth inhibition zone at 100 ug/ml after 48-96 hr by agar cup diffusion method; details: read-out: DIZ
[25] = tested on: Trichophyton rubrum; assay: Antimicrobial activity against Trichophyton rubrum MTCC 296 by agar cup diffusion method
[26] = tested on: Aspergillus clavatus; assay: Antimicrobial activity against Aspergillus clavatus MTCC 1323 assessed as diameter of growth inhibition zone at 100 ug/ml after 48-96 hr by agar cup diffusion method; details: read-out: DIZ
[27] = tested on: Escherichia coli; assay: Antimicrobial activity against Escherichia coli MTCC 443 assessed as diameter of growth inhibition zone at 50 ug/ml after 18-24 hr by agar cup diffusion method; details: read-out: DIZ
[28] = tested on: Klebsiella pneumoniae; assay: Antimicrobial activity against Klebsiella pneumoniae MTCC 109 assessed as diameter of growth inhibition zone at 100 ug/ml after 18-24 hr by agar cup diffusion method; details: read-out: DIZ
[29] = tested on: Trichophyton rubrum; assay: Antimicrobial activity against Trichophyton rubrum MTCC 296 assessed as diameter of growth inhibition zone at 100 ug/ml after 48-96 hr by agar cup diffusion method; details: read-out: DIZ
[30] = tested on: Penicillium; assay: Antimicrobial activity against Penicillium wild strain assessed as diameter of growth inhibition zone at 250 ug/ml after 48-96 hr by agar cup diffusion method; details: read-out: DIZ
[31] = tested on: Streptococcus pyogenes; assay: Antimicrobial activity against Streptococcus pyogenes MTCC 442 by agar cup diffusion method
[32] = tested on: Escherichia coli; assay: Antimicrobial activity against Escherichia coli MTCC 443 assessed as diameter of growth inhibition zone at 250 ug/ml after 18-24 hr by agar cup diffusion method; details: read-out: DIZ
[33] = tested on: Aspergillus clavatus; assay: Antimicrobial activity against Aspergillus clavatus MTCC 1323 assessed as diameter of growth inhibition zone at 50 ug/ml after 48-96 hr by agar cup diffusion method; details: read-out: DIZ
[34] = tested on: Escherichia coli; assay: Antimicrobial activity against Escherichia coli MTCC 443 by agar cup diffusion method
[35] = tested on: Staphylococcus aureus; assay: Antimicrobial activity against Staphylococcus aureus MTCC 96 assessed as diameter of growth inhibition zone at 100 ug/ml after 18-24 hr by agar cup diffusion method; details: read-out: DIZ
[36] = tested on: Penicillium; assay: Antimicrobial activity against Penicillium wild strain assessed as diameter of growth inhibition zone at 25 ug/ml after 48-96 hr by agar cup diffusion method; details: read-out: DIZ
[37] = tested on: Klebsiella pneumoniae; assay: Antimicrobial activity against Klebsiella pneumoniae MTCC 109 by agar cup diffusion method
[38] = tested on: Pseudomonas aeruginosa; assay: Antimicrobial activity against Pseudomonas aeruginosa MTCC 1688 assessed as diameter of growth inhibition zone at 50 ug/ml after 18-24 hr by agar cup diffusion method; details: read-out: DIZ
[39] = tested on: Staphylococcus aureus; assay: Antimicrobial activity against Staphylococcus aureus MTCC 96 by agar cup diffusion method
[40] = tested on: Staphylococcus aureus; assay: Antimicrobial activity against Staphylococcus aureus MTCC 96 assessed as diameter of growth inhibition zone at 25 ug/ml after 18-24 hr by agar cup diffusion method; details: read-out: DIZ
[41] = tested on: Streptococcus pyogenes; assay: Antimicrobial activity against Streptococcus pyogenes MTCC 442 assessed as diameter of growth inhibition zone at 50 ug/ml after 18-24 hr by agar cup diffusion method; details: read-out: DIZ
[42] = tested on: Pseudomonas aeruginosa; assay: Antimicrobial activity against Pseudomonas aeruginosa MTCC 1688 assessed as diameter of growth inhibition zone at 250 ug/ml after 18-24 hr by agar cup diffusion method; details: read-out: DIZ
[43] = tested on: Pseudomonas aeruginosa; assay: Antimicrobial activity against Pseudomonas aeruginosa MTCC 1688 by agar cup diffusion method
[44] = tested on: Candida albicans; assay: Antimicrobial activity against Candida albicans MTCC 227 assessed as diameter of growth inhibition zone at 25 ug/ml after 48-96 hr by agar cup diffusion method; details: read-out: DIZ
[45] = tested on: Escherichia coli; assay: Antimicrobial activity against Escherichia coli MTCC 443 assessed as diameter of growth inhibition zone at 25 ug/ml after 18-24 hr by agar cup diffusion method; details: read-out: DIZ

SMILES: O=C(/C=C/c1ccccc1O)C1C(=O)NC(=S)NC1=O
- zone of inhibition at 250 µg/mL [1]: 17 mm
- zone of inhibition at 100 µg/mL [2]: 16 mm
- MFC [3]: > 1000 µg/mL
- MIC [3]: > 1000 µg/mL
- zone of inhibition at 250 µg/mL [4]: 22 mm
- zone of inhibition at 25 µg/mL [5]: 12 mm
- MFC [6]: > 1000 µg/mL
- MIC [6]: > 1000 µg/mL
- zone of inhibition at 250 µg/mL [7]: 22 mm
- zone of inhibition at 25 µg/mL [8]: 13 mm
- zone of inhibition at 250 µg/mL [9]: 24 mm
- zone of inhibition at 25 µg/mL [10]: 18 mm
- MFC [11]: > 1000 µg/mL
- MIC [11]: 1000 µg/mL (≈ 3440 µM)
- zone of inhibition at 50 µg/mL [12]: 13 mm
- zone of inhibition at 25 µg/mL [13]: 18 mm
- zone of inhibition at 50 µg/mL [14]: 21 mm
- zone of inhibition at 250 µg/mL [15]: 17 mm
- zone of inhibition at 100 µg/mL [16]: 16 mm
- zone of inhibition at 250 µg/mL [17]: 19 mm
- zone of inhibition at 50 µg/mL [18]: 19 mm
- zone of inhibition at 100 µg/mL [19]: 17 mm
- zone of inhibition at 100 µg/mL [20]: 22 mm
- zone of inhibition at 25 µg/mL [21]: 11 mm
- zone of inhibition at 50 µg/mL [22]: 13 mm
- zone of inhibition at 50 µg/mL [23]: 19 mm
- zone of inhibition at 100 µg/mL [24]: 22 mm
- MFC [25]: > 1000 µg/mL
- MIC [25]: > 1000 µg/mL
- zone of inhibition at 100 µg/mL [26]: 20 mm
- zone of inhibition at 50 µg/mL [27]: 15 mm
- zone of inhibition at 100 µg/mL [28]: 15 mm
- zone of inhibition at 100 µg/mL [29]: 21 mm
- zone of inhibition at 250 µg/mL [30]: 23 mm
- MBC [31]: 200 µg/mL (≈ 689 µM)
- MIC [31]: 125 µg/mL (≈ 431 µM)
- zone of inhibition at 250 µg/mL [32]: 17 mm
- zone of inhibition at 50 µg/mL [33]: 19 mm
- MBC [34]: 200 µg/mL (≈ 689 µM)
- MIC [34]: 125 µg/mL (≈ 431 µM)
- zone of inhibition at 100 µg/mL [35]: 17 mm
- zone of inhibition at 25 µg/mL [36]: 18 mm
- MBC [37]: 250 µg/mL (≈ 861 µM)
- MIC [37]: 200 µg/mL (≈ 689 µM)
- zone of inhibition at 50 µg/mL [38]: 13 mm
- MBC [39]: 500 µg/mL (≈ 1720 µM)
- MIC [39]: 500 µg/mL (≈ 1720 µM)
- zone of inhibition at 25 µg/mL [40]: 11 mm
- zone of inhibition at 50 µg/mL [41]: 15 mm
- zone of inhibition at 250 µg/mL [42]: 19 mm
- MBC [43]: 250 µg/mL (≈ 861 µM)
- MIC [43]: 250 µg/mL (≈ 861 µM)
- zone of inhibition at 25 µg/mL [44]: 17 mm
- zone of inhibition at 25 µg/mL [45]: 13 mm
